In ChEMBL document CHEMBL3132769, “Fragment growing to retain or alter the selectivity of anchored kinase hinge-binding fragments” (Medchemcomm, 2014):

Experiments:
[1] = target: T1, Aurora kinase A (Homo sapiens) (UniProt O14965); test: Inhibition of human full length AurA expressed in baculovirus assessed as substrate phosphorylation using fluorescence-labelled peptides as substrate at 70 uM after 90 mins by microfluidic peptide phosphorylation assay
T1 sequence (whole entry): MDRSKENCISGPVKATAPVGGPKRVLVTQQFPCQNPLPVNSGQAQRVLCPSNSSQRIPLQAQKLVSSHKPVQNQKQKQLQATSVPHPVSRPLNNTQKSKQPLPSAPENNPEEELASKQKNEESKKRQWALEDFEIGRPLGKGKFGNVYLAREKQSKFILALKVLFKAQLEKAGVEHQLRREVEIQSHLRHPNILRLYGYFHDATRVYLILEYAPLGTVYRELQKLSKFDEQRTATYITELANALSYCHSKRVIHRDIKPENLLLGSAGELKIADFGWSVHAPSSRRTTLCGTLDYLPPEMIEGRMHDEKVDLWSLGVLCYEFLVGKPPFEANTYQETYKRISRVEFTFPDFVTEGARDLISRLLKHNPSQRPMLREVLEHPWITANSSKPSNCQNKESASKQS

[2] = system: T2, Receptor-type tyrosine-protein kinase FLT3 (Homo sapiens), P36888 [D835Y]; test: Inhibition of human FLT3 D835Y mutant catalytic domain expressed in baculovirus assessed as substrate phosphorylation using fluorescence-labelled peptides as substrate at 0.2 uM after 90 mins by microfluidic peptide phosphorylation assay
T2 sequence (whole entry): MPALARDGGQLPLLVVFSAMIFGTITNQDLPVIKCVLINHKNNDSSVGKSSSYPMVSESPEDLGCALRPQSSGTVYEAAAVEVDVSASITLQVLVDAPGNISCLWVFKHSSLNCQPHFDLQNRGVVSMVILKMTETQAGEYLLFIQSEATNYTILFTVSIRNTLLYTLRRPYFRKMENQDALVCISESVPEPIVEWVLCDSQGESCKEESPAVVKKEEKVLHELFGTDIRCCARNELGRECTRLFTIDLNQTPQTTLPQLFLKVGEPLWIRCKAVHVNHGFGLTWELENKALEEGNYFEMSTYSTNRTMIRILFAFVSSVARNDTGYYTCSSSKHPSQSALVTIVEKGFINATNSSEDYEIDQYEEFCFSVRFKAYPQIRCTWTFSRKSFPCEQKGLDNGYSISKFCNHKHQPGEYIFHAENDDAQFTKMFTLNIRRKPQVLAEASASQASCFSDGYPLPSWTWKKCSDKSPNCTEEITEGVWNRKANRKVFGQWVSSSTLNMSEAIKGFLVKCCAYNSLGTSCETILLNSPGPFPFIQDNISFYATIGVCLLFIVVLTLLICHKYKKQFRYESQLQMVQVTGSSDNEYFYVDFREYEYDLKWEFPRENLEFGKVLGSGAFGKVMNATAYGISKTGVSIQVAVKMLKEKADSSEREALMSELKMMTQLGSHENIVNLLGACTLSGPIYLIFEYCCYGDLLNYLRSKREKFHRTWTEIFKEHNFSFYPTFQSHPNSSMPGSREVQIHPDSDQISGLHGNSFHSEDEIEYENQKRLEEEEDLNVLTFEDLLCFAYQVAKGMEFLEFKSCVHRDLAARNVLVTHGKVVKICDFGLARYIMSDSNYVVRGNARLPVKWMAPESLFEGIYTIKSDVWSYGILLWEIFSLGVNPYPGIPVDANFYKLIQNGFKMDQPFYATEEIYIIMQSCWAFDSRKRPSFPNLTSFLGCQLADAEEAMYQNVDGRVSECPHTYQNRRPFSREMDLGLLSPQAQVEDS

[3] = target: Mitogen-activated protein kinase 3 (Homo sapiens) (UniProt P27361); test: Inhibition of human full length ERK1 expressed in Escherichia coli cell assessed as substrate phosphorylation using fluorescence-labelled peptides as substrate at 0.2 uM after 90 mins by microfluidic peptide phosphorylation assay
Sequence of Mitogen-activated protein kinase 3 (Homo sapiens) (P27361 whole entry, the tested form may be a part): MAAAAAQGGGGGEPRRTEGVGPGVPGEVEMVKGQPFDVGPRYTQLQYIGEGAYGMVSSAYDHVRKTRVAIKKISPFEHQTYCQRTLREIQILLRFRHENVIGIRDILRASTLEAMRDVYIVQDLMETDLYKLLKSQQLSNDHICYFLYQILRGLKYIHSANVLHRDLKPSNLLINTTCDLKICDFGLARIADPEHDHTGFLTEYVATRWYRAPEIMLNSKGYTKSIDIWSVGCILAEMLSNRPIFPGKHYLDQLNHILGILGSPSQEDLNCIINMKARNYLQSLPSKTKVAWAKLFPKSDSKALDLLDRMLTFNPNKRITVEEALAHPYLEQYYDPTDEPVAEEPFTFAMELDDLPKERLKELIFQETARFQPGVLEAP

[4] = system: T2, Receptor-type tyrosine-protein kinase FLT3 (Homo sapiens), P36888 [D835Y]; test: Inhibition of human FLT3 D835Y mutant catalytic domain expressed in baculovirus assessed as substrate phosphorylation using fluorescence-labelled peptides as substrate at 420 uM after 90 mins by microfluidic peptide phosphorylation assay
[5] = target: Ribosomal protein S6 kinase alpha-2 (Homo sapiens) (UniProt Q15349); test: Inhibition of human full length RSK3 expressed in baculovirus assessed as substrate phosphorylation using fluorescence-labelled peptides as substrate at 420 uM after 90 mins by microfluidic peptide phosphorylation assay
Sequence of Ribosomal protein S6 kinase alpha-2 (Homo sapiens) (Q15349 whole entry): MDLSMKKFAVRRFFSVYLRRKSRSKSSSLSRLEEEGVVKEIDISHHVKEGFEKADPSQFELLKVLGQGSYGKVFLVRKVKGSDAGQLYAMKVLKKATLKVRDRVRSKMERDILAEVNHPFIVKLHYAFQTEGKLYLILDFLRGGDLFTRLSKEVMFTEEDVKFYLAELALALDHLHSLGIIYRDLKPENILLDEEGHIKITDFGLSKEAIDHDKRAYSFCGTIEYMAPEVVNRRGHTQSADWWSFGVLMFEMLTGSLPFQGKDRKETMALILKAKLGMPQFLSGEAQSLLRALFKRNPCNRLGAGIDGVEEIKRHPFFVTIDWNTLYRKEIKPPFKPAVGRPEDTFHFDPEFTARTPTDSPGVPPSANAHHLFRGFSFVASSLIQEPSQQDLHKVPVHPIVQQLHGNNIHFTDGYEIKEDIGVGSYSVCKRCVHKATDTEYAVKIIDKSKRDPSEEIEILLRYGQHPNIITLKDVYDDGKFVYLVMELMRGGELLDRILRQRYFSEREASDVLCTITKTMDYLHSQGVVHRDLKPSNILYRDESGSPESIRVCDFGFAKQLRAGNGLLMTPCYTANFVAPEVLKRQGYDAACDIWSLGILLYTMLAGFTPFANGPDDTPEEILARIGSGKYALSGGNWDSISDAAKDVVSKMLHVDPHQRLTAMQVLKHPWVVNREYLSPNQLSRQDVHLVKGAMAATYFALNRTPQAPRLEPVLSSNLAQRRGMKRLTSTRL

Homo sapiens = species on record: Homo sapiens; test: Inhibition of human full length PKA expressed in baculovirus assessed as substrate phosphorylation using fluorescence-labelled peptides as substrate at 9 uM after 90 mins by microfluidic peptide phosphorylation assay
[6] = target: Protein kinase C eta type (Homo sapiens) (UniProt P24723); test: Inhibition of human truncated PKC eta expressed in baculovirus assessed as substrate phosphorylation using fluorescence-labelled peptides as substrate at 9 uM after 90 mins by microfluidic peptide phosphorylation assay
Sequence of Protein kinase C eta type (Homo sapiens) (P24723 whole entry, the tested form may be a part): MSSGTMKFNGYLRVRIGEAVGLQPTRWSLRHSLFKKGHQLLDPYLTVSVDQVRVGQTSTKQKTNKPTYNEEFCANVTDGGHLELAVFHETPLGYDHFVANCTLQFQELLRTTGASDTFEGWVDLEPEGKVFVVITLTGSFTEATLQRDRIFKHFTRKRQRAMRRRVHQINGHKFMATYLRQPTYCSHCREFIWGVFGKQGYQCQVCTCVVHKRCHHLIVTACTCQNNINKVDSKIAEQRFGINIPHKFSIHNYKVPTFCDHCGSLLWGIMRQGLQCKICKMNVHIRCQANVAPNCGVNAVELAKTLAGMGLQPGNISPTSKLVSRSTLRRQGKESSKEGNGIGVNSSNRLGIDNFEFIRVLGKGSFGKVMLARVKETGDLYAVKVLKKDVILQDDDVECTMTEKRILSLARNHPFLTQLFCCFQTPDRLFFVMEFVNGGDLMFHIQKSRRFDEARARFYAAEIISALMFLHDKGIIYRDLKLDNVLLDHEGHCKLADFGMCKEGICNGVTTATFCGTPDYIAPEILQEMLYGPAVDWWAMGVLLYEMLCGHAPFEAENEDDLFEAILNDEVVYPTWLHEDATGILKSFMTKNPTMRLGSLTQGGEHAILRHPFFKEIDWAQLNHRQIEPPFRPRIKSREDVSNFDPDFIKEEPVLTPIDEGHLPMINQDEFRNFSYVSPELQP

[7] = target: Fibroblast growth factor receptor 2 (Homo sapiens) (UniProt P21802); test: Inhibition of human FGFR2 catalytic domain expressed in baculovirus assessed as substrate phosphorylation using fluorescence-labelled peptides as substrate at 1000 uM after 90 mins by microfluidic peptide phosphorylation assay
Sequence of Fibroblast growth factor receptor 2 (Homo sapiens) (P21802 22-821 limits assumed): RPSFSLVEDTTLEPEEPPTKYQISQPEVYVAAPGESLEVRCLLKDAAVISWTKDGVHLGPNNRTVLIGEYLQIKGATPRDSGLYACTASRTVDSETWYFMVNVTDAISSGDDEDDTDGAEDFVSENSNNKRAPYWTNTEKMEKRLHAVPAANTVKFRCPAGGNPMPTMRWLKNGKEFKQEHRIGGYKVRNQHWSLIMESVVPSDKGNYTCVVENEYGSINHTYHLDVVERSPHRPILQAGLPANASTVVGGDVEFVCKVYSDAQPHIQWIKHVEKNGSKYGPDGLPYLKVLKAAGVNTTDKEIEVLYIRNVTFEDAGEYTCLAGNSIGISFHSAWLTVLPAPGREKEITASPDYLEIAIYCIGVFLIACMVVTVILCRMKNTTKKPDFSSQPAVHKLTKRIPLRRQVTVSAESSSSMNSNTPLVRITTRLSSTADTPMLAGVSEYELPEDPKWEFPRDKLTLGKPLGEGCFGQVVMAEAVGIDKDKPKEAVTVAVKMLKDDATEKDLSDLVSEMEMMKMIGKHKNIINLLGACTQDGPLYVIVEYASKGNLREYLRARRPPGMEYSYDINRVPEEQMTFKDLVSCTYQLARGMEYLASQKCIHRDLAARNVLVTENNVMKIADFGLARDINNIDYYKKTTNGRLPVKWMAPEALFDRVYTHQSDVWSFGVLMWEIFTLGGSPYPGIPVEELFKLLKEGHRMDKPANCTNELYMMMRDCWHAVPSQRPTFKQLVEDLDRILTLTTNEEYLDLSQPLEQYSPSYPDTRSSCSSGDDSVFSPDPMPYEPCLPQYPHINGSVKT

[8] = target: Tyrosine-protein kinase Lyn (Homo sapiens) (UniProt P07948); test: Inhibition of human full length LYN expressed in baculovirus assessed as substrate phosphorylation using fluorescence-labelled peptides as substrate at 2 uM after 90 mins by microfluidic peptide phosphorylation assay
Sequence of Tyrosine-protein kinase Lyn (Homo sapiens) (P07948 2-512 limits assumed): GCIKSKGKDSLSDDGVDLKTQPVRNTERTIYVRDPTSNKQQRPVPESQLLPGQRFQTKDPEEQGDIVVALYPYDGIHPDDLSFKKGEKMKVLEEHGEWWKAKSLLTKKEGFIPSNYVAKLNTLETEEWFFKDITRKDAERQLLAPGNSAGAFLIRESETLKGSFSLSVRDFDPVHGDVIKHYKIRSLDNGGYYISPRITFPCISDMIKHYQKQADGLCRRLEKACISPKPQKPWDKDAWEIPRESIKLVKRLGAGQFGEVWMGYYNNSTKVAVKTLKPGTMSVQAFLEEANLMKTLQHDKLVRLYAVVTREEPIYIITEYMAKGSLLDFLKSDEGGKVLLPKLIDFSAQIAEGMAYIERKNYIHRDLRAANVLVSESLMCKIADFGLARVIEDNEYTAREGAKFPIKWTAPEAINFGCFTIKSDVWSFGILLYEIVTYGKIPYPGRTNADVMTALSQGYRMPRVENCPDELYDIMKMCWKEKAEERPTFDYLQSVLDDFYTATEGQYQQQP

[9] = target: Ribosomal protein S6 kinase alpha-1 (Homo sapiens) (UniProt Q15418); test: Inhibition of human full length RSK1 expressed in baculovirus assessed as substrate phosphorylation using fluorescence-labelled peptides as substrate at […] after 90 mins by microfluidic peptide phosphorylation assay
Sequence of Ribosomal protein S6 kinase alpha-1 (Homo sapiens) (Q15418 whole entry): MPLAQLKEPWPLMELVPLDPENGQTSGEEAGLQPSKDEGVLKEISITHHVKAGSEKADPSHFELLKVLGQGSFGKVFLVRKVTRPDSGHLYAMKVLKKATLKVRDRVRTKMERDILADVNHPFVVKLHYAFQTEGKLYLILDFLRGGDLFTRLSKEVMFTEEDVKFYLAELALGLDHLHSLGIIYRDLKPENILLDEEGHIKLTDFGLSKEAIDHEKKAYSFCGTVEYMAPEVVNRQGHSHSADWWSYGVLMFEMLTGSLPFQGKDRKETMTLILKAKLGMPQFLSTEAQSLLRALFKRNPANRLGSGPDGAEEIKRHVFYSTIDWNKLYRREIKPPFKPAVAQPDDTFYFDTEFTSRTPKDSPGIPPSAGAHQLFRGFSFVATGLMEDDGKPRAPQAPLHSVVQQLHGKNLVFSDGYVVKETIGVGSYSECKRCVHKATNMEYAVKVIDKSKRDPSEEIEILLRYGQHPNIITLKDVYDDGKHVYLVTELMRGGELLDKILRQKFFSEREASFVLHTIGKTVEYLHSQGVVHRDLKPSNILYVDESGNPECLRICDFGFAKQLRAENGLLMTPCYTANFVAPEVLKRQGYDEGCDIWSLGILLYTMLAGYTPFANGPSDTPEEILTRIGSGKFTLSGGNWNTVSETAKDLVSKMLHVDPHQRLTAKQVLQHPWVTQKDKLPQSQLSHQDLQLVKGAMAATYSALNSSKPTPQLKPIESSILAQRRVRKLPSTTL

[10] = target: Serine/threonine-protein kinase Chk2 (Homo sapiens) (UniProt O96017); test: Inhibition of human full length CHK2 expressed in baculovirus assessed as substrate phosphorylation using fluorescence-labelled peptides as substrate at 8 uM after 90 mins by microfluidic peptide phosphorylation assay
Sequence of Serine/threonine-protein kinase Chk2 (Homo sapiens) (O96017 whole entry): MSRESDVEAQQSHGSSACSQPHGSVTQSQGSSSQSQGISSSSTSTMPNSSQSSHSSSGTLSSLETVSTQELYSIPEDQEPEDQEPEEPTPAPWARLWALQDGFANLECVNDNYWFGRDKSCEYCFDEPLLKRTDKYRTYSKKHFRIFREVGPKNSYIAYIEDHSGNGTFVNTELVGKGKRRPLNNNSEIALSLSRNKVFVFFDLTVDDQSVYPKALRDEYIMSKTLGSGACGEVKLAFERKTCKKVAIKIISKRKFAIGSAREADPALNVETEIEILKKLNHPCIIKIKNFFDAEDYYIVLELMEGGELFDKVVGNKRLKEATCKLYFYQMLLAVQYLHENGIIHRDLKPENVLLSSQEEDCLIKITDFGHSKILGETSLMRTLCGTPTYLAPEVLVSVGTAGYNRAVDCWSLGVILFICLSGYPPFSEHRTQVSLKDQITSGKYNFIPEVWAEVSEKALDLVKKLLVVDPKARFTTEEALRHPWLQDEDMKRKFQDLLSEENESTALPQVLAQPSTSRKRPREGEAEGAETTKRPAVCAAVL

Structure (SMILES): CNCc1ccc(-c2ncnc3[nH]cnc23)cc1
- inhibition [1]: 68%

Structure (SMILES): Clc1ccc(C2(c3ccc(-c4ncnc5[nH]cnc45)cc3)CCNCC2)cc1
- inhibition [2]: 16%
- inhibition [3]: 6%

Structure (SMILES): c1nc(N2CCOCC2)c2nc[nH]c2n1
- inhibition [4]: 93%
- inhibition [5]: 98%

Structure (SMILES): NCC1CN(c2ncnc3[nH]c4cnccc4c23)CCO1 (stereo unspecified)
- inhibition (Homo sapiens): 33.5%
- inhibition [6]: 54.5%

Structure (SMILES): c1cnc2[nH]ccc2c1
- inhibition [7]: 62%

Structure (SMILES): NC1CCN(c2ncnc3[nH]ccc23)CC1
- inhibition [8]: 0.5%

Structure (SMILES): COC(=O)c1cnc(Nc2cnc(C#N)cn2)cc1NCC1CCNCC1
- inhibition [9]: 37%

Structure (SMILES): NCC1CCN(c2ncnc3[nH]ccc23)CC1
- inhibition [10]: 0%
